Laboratory results taken from patent US20240115470A1, “METHYL-FLUORO-HYDROXYBENZOATES IN CONSUMER PRODUCTS” (GIVAUDAN SA, priority 2020, published 2024).

Tests used:
[1] = Assessment of the odor profile on smelling strips by panellists, compared to methyl salicylate; settings: for Odor description: compound @10 wt % in polyethylene glycol, freshly dipped on smelling strips, compared to methyl salicylate; for odor profile compared to methyl salicylate (summary statement) / sweet aspect of odor profile: general statement in description
Protocol: A 10 wt % solution of the purified samples of Example 1 were prepared (compound @10 wt % in polyethylene glycol). The odor profile was assessed freshly dipped on smelling strips.
Panellists have been asked to provide an odor description as compared to methyl salicylate.

[2] = GC-odor threshold concentration (gas chromatograph with sniff port, panel of trained evaluators); settings: for odor threshold concentration compared to methyl salicylate and other methyl-fluoro-hydroxybenzoates (in words): general statement in description; for odor threshold concentration (relative): relative values, identical conditions, GC sniff port
Protocol: Definition: The odour threshold concentration is defined as the lowest concentration of the vapour of an odorant material in the air which can be detected by smell and can be measured by standard methods known in the art.
According to standard procedures known to the person skilled in the art, threshold concentrations for volatile perfumery compounds are determined on a gas chromatograph equipped with a sniff port by a panel of trained evaluators. The lowest concentration smelled by each panelist is recorded as the individual threshold concentration expressed in ng (absolute amount of compound delivered at the sniff port).
Under identical conditions the odor threshold concentration for […]

[3] = Light floral cologne accord, replacement of 4 parts DPG; settings: 4 parts DPG of 1000 replaced by the compound
Text: The accord above represents a light floral cologne accord, suitable for fine perfumery at a dosage of e.g. 5 weight %.
Without methyl salicylate, the accord lacks initial freshness and neutrality on the top note.
Thus an accord was obtained which compensates the effects normally achieved by the presence of methyl salicylate, thus a useful compensation of methyl salicylate is obtained.

[4] = Replacement of methyl salicylate in wintergreen flavor formulation for toothpaste; settings: 20 parts methyl salicylate replaced by 0.2 parts compound and 19.8 parts PG
Text: The formulation above is a typical wintergreen type flavor suitable for the use in toothpaste products, at a dosage of, e.g. 1.2 wt %.

[5] = Replacement of methyl salicylate in wintergreen flavor formulation for mouthwash; settings: 20 parts methyl salicylate replaced by 0.2 parts compound and 19.8 parts PG
Text: The formulation above is a typical wintergreen type flavor suitable for the use in mouthwash products, at a dosage of, e.g. 0.3 wt %.

Compound	Odor description [1]	odor profile compared to methyl salicylate (summary statement) [1]	sweet aspect of odor profile [1]	odor threshold concentration compared to methyl salicylate and other methyl-fluoro-hydroxybenzoates (in words) [2]	odor threshold concentration (relative) [2]	olfactory effect on accord [3]	flavor profile after replacement of methyl salicylate [4]	flavor profile after replacement of methyl salicylate [5]	odor threshold concentration, times lower than methyl 3-fluoro-2-hydroxybenzoate ([2]; versus methyl 3-fluoro-2-hydroxybenzoate)	odor threshold concentration, times lower than methyl salicylate ([2]; versus methyl salicylate)
COC(=O)c1c(O)cccc1F [methyl 2-fluoro-6-hydroxybenzoate]	Sweetness, elements of wintergreen,	very similar to methyl salicylate	possessing these sweet aspect	surprisingly low	1	–	–	–	–	–
COC(=O)c1ccccc1O [methyl 2-hydroxybenzoate, reference compound]	–	–	–	–	22	helps to reinforce the fresh, transparent, natural top note	–	–	–	–
COC(=O)c1cccc(F)c1O [methyl 3-fluoro-2-hydroxybenzoate, reference compound]	Medicinal note, technical	–	–	–	42	–	–	–	–	–
COC(=O)c1ccc(F)cc1O [methyl 4-fluoro-2-hydroxybenzoate]	Wintergreen, typical methyl salicylate	very similar to methyl salicylate	possessing these sweet aspect	surprisingly low	4	fresh and green natural effect on the top note	profile with very similar characteristics	profile with very similar characteristics	more than 10 times	more than 5 times
COC(=O)c1cc(F)ccc1O [methyl 5-fluoro-2-hydroxybenzoate, reference compound]	less sweetness, methyl salicylate character	–	–	–	36	–	–	–	–	–
